The test system of data set [1] is HBeAg. In words: PHH natural infection assay, HBeAg (alphalisa). It is filed as cell-based, HBV. As to conditions: Hepatitis B virus, Hepatocyte, read-out: HBeAg IC50, HBV-infected primary human hepatocytes, supernatant, alphalisa. As for the experimental part:
(§1) Detailed procedures regarding primary human hepatocyte (PHH) HBV natural infection assay are described as below. One tube of frozen PHH (10 million cells) is thawed in 37° C. water bath and then transferred to 20 mL of PHH thawing medium (Sigma, InVitroGRO HT Medium, Cat. S03319) with gently mixing. The cells were then centrifuged at […] for 5 min, the supernatant was discarded and the tube was refilled with 25 mL of PHH plating medium (Sigma, InVitroGRO CP Medium, Cat. S03317). The tube was shaken very gently to re-suspend all cells, and then 50 μL of cells were transferred to each well 384-well collagen I coated plate with appropriate liquid handling equipment, e.g. Integra VIAFLO384 or Agilent Bravo. The cells were then cultured for 24 hours in a cell incubator. For HBV infection, after PHH attachment on the culture plate, the plating medium was removed and replenished with PHH culture medium containing HBV virus. The PHH culture medium was prepared with Dulbecco's Modified Eagle Medium (DMEM)/F12 (1:1 in volume ratio) containing 10% fetal bovine serum (Gibco, Cat. 10099141), 5 ng/mL human epidermal growth factor (Gibco, Cat.PHG0311L), 20 ng/mL dexamethasone (Sigma, Cat.D4902-100 mg), 250 ng/mL human recombinant insulin (Gibco, Cat.41400045) and 100 U/mL penicillin. HBV virus at 200 genome equivalent (GE) per cell with 4% PEG8000 (Sigma, Cat.P1458) containing culture medium were added to the PHH culture medium for infection. The cells were then cultured for 24 hours in cell incubator. Then the cell culture supernatant was removed. The HBV-infected PHH were cultured with sandwich culture method with PHH culture medium containing […] and 0.25 mg/mL matrix gel for 72 hours. The supernatant was then refreshed with PHH culture medium containing different concentrations of testing compounds for two times with 72-hour interval. At the end of treatment, the supernatant was collected for viral markers measurements, including HBsAg, HBeAg, HBV DNA and cytotoxicity. HBsAg and HBeAg were detected using alphalisa method using their specific antibodies. For HBV DNA detection, HBV DNA Quantitative Fluorescence Diagnostic Kit (Sansure Biotech Inc.) was used following the manufacture's protocol. Cytotoxicity was determined using Cell Counting Kit-8 (CCK8, Dojindo Molecular Technologies, Inc.).
(§2) The compounds of the present invention were tested for their capacity to inhibit HBsAg and HBeAg as described herein.

Data set [2] has as its system HBsAg. In words: PHH natural infection assay, HBsAg (alphalisa). In kind it is cell-based, HBV. Conditions: Hepatitis B virus, Hepatocyte, read-out: HBsAg IC50, HBV-infected primary human hepatocytes, supernatant, alphalisa. The procedure: as §1, §2
Data set [3] is described as follows: Cytotoxicity in PHH natural infection assay (Cell Counting Kit-8). In kind it is cell-based. Conditions: HBV-infected primary human hepatocytes, CCK8. The procedure: as §1

A value given as a limit tells only on which side of the number the result lay.

Regarding `O=C(NC1CC2(C1)CC(c1nc3cc(Cl)ccc3o1)C2)c1ccncc1` (stereo not drawn) [Example 3, N-[6-(5-chloro-1,3-benzoxazol-2-yl)spiro[3.3]heptan-2-yl]pyridine-4-carboxamide], the IC50 turned out to be 4.39 µM in data set [1] and 8.19 µM in data set [2]. Also, the half-maximal cytotoxic concentration (CC50) at 144 h in data set [3] is over 100 µM.

Regarding `Cc1cc(C(=O)NC2CC3(C2)CC(c2nc4cc(Cl)ccc4o2)C3)ccn1` (stereo not drawn) [Example 4, N-[6-(5-chloro-1,3-benzoxazol-2-yl)spiro[3.3]heptan-2-yl]-2-methyl-pyridine-4-carboxamide], the IC50 was 4.59 µM in data set [1] and 5.51 µM in data set [2]. For the same compound, the CC50 at 144 h in data set [3] was over 10 µM.

With `O=C(NC1CC2(C1)CC(c1nc3cc(Cl)ccc3o1)C2)c1ccnc(NC2COC2)c1` (stereo not drawn) [Example 5, N-[6-(5-chloro-1,3-benzoxazol-2-yl)spiro[3.3]heptan-2-yl]-2-(oxetan-3-ylamino)pyridine-4-carboxamide], the IC50 in data set [1] is 5.42 µM; in data set [2], 7.19 µM. For the same compound, the CC50 at 144 h in data set [3] is over 10 µM.

Regarding `CCN(CC)c1cc(C(=O)NC2CC3(C2)CC(c2nc4cc(Cl)ccc4o2)C3)ccn1` (stereo not drawn) [Example 6, N-[6-(5-chloro-1,3-benzoxazol-2-yl)spiro[3.3]heptan-2-yl]-2-(diethylamino)pyridine-4-carboxamide], the IC50 in data set [1] was 4.87 µM; in data set [2], 6.56 µM. Further, in data set [3], the CC50 at 144 h is over 10 µM.

Take `CCN(C)c1cc(C(=O)NC2CC3(C2)CC(c2nc4cc(Cl)ccc4o2)C3)ccn1` (stereo not drawn) [Example 7, N-[6-(5-chloro-1,3-benzoxazol-2-yl)spiro[3.3]heptan-2-yl]-2-[ethyl(methyl)amino]pyridine-4-carboxamide]: the IC50 in data set [1] amounted to 4.34 µM; in data set [2], 4.19 µM. This compound also returned a CC50 at 144 h in data set [3] of over 10 µM.

For the compound `O=C(NC1CC2(C1)CC(c1nc3cc(Cl)ccc3o1)C2)c1ccnc(N2CCCCC2)c1` (stereo not drawn) [Example 8, N-[6-(5-chloro-1,3-benzoxazol-2-yl)spiro[3.3]heptan-2-yl]-2-(1-piperidyl)pyridine-4-carboxamide], the concentration for half-maximal inhibition (IC50) in data set [1] was determined as 4.05 µM; in data set [2] it was 4.73 µM. The cytotoxic concentration (CC50) at 144 h in data set [3] was over 10 µM.

As to `O=C(NC1CC2(C1)CC(c1nc3cc(Cl)ccc3o1)C2)c1ccnc(N2CCOCC2)c1` (stereo not drawn) [Example 9, N-[6-(5-chloro-1,3-benzoxazol-2-yl)spiro[3.3]heptan-2-yl]-2-morpholino-pyridine-4-carboxamide], the results for the IC50 in data set [1] and in data set [2] were 4.37 µM and 3.83 µM, respectively. The CC50 at 144 h in data set [3] is over 10 µM.

Consider `O=C(NC1CC2(C1)CC(c1nc3cc(Cl)ccc3o1)C2)c1ccnc(NC2CC2)c1` (stereo not drawn) [Example 10, N-[6-(5-chloro-1,3-benzoxazol-2-yl)spiro[3.3]heptan-2-yl]-2-(cyclopropylamino)pyridine-4-carboxamide], for which the values for the IC50 in data set [1] and in data set [2] were 3.92 µM and 3.77 µM, respectively. Further, in data set [3], the CC50 at 144 h is over 10 µM.

With `CN(C)c1cc(C(=O)NC2CC3(C2)CC(c2nc4cc(Cl)ccc4o2)C3)ccn1` (stereo not drawn) [Example 11, N-[6-(5-chloro-1,3-benzoxazol-2-yl)spiro[3.3]heptan-2-yl]-2-(dimethylamino)pyridine-4-carboxamide], the results for the IC50 in data set [1] and in data set [2] were 2.67 µM and 2.85 µM, respectively. The compound further had a CC50 at 144 h in data set [3] of over 100 µM.

For the compound `CC(C)N(C)c1cc(C(=O)NC2CC3(C2)CC(c2nc4cc(Cl)ccc4o2)C3)ccn1` (stereo not drawn) [Example 12, N-[6-(5-chloro-1,3-benzoxazol-2-yl)spiro[3.3]heptan-2-yl]-2-[isopropyl(methyl)amino]pyridine-4-carboxamide], the IC50 in data set [1] stood at 1.55 µM; in data set [2], 2.03 µM. In data set [3], this compound returned a CC50 at 144 h of over 10 µM.

As for `O=C(NC1CC2(C1)CC(c1nc3cc(Cl)ccc3o1)C2)c1ccnc(N2CCCC2=O)c1` (stereo not drawn) [Example 13, N-[6-(5-chloro-1,3-benzoxazol-2-yl)spiro[3.3]heptan-2-yl]-2-(2-oxopyrrolidin-1-yl)pyridine-4-carboxamide], the IC50 was determined as 3.94 µM in data set [1] and 3.75 µM in data set [2]. This compound displayed a CC50 at 144 h in data set [3] of over 10 µM.

Take `Cc1csc(-c2cc(C(=O)NC3CC4(C3)CC(c3nc5cc(Cl)ccc5o3)C4)ccn2)n1` (stereo not drawn) [Example 14, N-[6-(5-chloro-1,3-benzoxazol-2-yl)spiro[3.3]heptan-2-yl]-2-(4-methylthiazol-2-yl)pyridine-4-carboxamide]: the IC50 amounted to 4.08 µM in data set [1] and 6.36 µM in data set [2]. This compound showed a CC50 at 144 h in data set [3] of over 10 µM.

In the case of `Cc1cnc(-c2cc(C(=O)NC3CC4(C3)CC(c3nc5cc(Cl)ccc5o3)C4)ccn2)s1` (stereo not drawn) [Example 15, N-[6-(5-chloro-1,3-benzoxazol-2-yl)spiro[3.3]heptan-2-yl]-2-(5-methylthiazol-2-yl)pyridine-4-carboxamide], the IC50 was found to be 1.47 µM in data set [1] and 2.25 µM in data set [2]. Besides, in data set [3], the CC50 at 144 h was over 10 µM.

Turning to `O=C(NC1CC2(C1)CC(c1nc3cc(Cl)ccc3o1)C2)c1ccnc(-c2nccs2)c1` (stereo not drawn) [Example 16, N-[6-(5-chloro-1,3-benzoxazol-2-yl)spiro[3.3]heptan-2-yl]-2-thiazol-2-yl-pyridine-4-carboxamide], the IC50 turned out to be 4.73 µM in data set [1] and 5.78 µM in data set [2]. The CC50 at 144 h in data set [3] is over 10 µM.

`COc1cc(C(=O)NC2CC3(C2)CC(c2nc4cc(Cl)ccc4o2)C3)ccn1` (stereo not drawn) [Example 17, N-[6-(5-chloro-1,3-benzoxazol-2-yl)spiro[3.3]heptan-2-yl]-2-methoxy-pyridine-4-carboxamide]: the results for the IC50 in data set [1] and in data set [2] were 4.48 µM and 5.45 µM, respectively. Further, in data set [3], the CC50 at 144 h is over 10 µM.

In the case of `N#Cc1cc(C(=O)NC2CC3(C2)CC(c2nc4cc(Cl)ccc4o2)C3)ccn1` (stereo not drawn) [Example 18, N-[6-(5-chloro-1,3-benzoxazol-2-yl)spiro[3.3]heptan-2-yl]-2-cyano-pyridine-4-carboxamide], the IC50 was found to be 4.87 µM in data set [1] and 4.86 µM in data set [2]. In data set [3], this compound showed a CC50 at 144 h of over 10 µM.

Take `NS(=O)(=O)c1cc(C(=O)NC2CC3(C2)CC(c2nc4cc(Cl)ccc4o2)C3)ccn1` (stereo not drawn) [Example 19, N-[6-(5-chloro-1,3-benzoxazol-2-yl)spiro[3.3]heptan-2-yl]-2-sulfamoyl-pyridine-4-carboxamide]: the IC50 was determined as 1.24 µM in data set [1] and 2.25 µM in data set [2]. For the same compound, the CC50 at 144 h in data set [3] is over 10 µM.

Take `CC(C)Oc1cc(C(=O)NC2CC3(C2)CC(c2nc4cc(Cl)ccc4o2)C3)ccn1` (stereo not drawn) [Example 20, N-[6-(5-chloro-1,3-benzoxazol-2-yl)spiro[3.3]heptan-2-yl]-2-isopropoxy-pyridine-4-carboxamide]: the IC50 in data set [1] worked out at 1.26 µM; in data set [2], 1.92 µM. This compound also gave a CC50 at 144 h in data set [3] of over 10 µM.

Regarding `O=C(NC1CC2(C1)CC(c1nc3cc(Cl)ccc3o1)C2)c1ccnc(C(F)(F)F)c1` (stereo not drawn) [Example 21, N-[6-(5-chloro-1,3-benzoxazol-2-yl)spiro[3.3]heptan-2-yl]-2-(trifluoromethyl)pyridine-4-carboxamide], the IC50 in data set [1] is 1.98 µM; in data set [2] it was 1.82 µM. In data set [3], this compound had a CC50 at 144 h of 82 µM.

For the compound `CNS(=O)(=O)Nc1cc(C(=O)NC2CC3(C2)CC(c2nc4cc(Cl)ccc4o2)C3)ccn1` (stereo not drawn) [Example 22, N-[6-(5-chloro-1,3-benzoxazol-2-yl)spiro[3.3]heptan-2-yl]-2-(methylsulfamoylamino)pyridine-4-carboxamide], the IC50 came out at 4.38 µM in data set [1] and 4.94 µM in data set [2]. In addition, the 50% cytotoxic concentration (CC50) at 144 h in data set [3] is over 10 µM.

With `CS(=O)(=O)c1cc(C(=O)NC2CC3(C2)CC(c2nc4cc(Cl)ccc4o2)C3)ccn1` (stereo not drawn) [Example 23, N-[6-(5-chloro-1,3-benzoxazol-2-yl)spiro[3.3]heptan-2-yl]-2-methylsulfonyl-pyridine-4-carboxamide], the IC50 in data set [1] turned out to be 0.49 µM; in data set [2] it was 0.57 µM. The compound also came in with a CC50 at 144 h in data set [3] of 94.1 µM.

With `CS(=O)(=O)c1cncc(C(=O)NC2CC3(C2)CC(c2nc4cc(Cl)ccc4o2)C3)c1` (stereo not drawn) [Example 24, N-[6-(5-chloro-1,3-benzoxazol-2-yl)spiro[3.3]heptan-2-yl]-5-methylsulfonyl-pyridine-3-carboxamide], the IC50 was 3.73 µM in data set [1] and 5.99 µM in data set [2]. Moreover, the CC50 at 144 h in data set [3] was over 100 µM.

Values taken from US20230286968A1, “ARYLOXAZOLO SPIRAL RING DERIVATIVES FOR THE TREATMENT AND PROPHYLAXIS OF HEPATITIS B VIRUS INFECTION” (Hoffmann-La Roche Inc., priority 2020, published 2023).
